# From patent publication US20230381330A1, “ENZYME-ACTIVATED SERUM EXTENDED HALF-LIFE THERAPEUTIC CONJUGATES” (Avacta Life Sciences Limited, priority 2020, published 2023)
# Assays:
# mouse tumor model = experiment: EC50 / maximum tolerated dose studies in mice; assay type: in vivo; conditions: FIG. 4A/4B
# Method: (§1) Half-maximal effective concentration (EC50) studies were undertaken to examine the difference between mice and rats administered talabostat alone (FIG. 4A) and mice and rats administered the therapeutic conjugates comprising talabostat (FIG. 4B). When talabostat is administered alone, the talabostat maximum tolerated dose (MTD) is about 3 mg/m^2 in a mouse tumor model and 0.18 mg/m^2 in rats. That is, the talabostat MTD is 1/17 the tumor model EC50 (FIG. 4A). […] Talabostat, as part of the therapeutic conjugate, can be administered to rats and mice at therapeutically effective doses.
# rats = experiment: EC50 / maximum tolerated dose studies in rats; assay type: in vivo, rat; conditions: talabostat administered alone, FIG. 4A
# Method: as §1
# [1] = system: J774A.1 mouse macrophage cell line cells; experiment: LDH release (pyroptosis) in J774A.1 cells with or without rhFAPα; assay type: cell-based; conditions: serial 10-fold dilutions, rhFAPα 25 nM, 24 hours, FIG. 17
# Method: In further in vitro studies, several conjugates were tested for their ability to induce pyroptosis in J774 cells in the absence and presence of FAPα. Briefly, J774A.1 mouse macrophage cell line cells were cultured in triplicate wells with serial 10-fold dilutions of either VbP (data not shown) or one of the FAP-activated I-DASH inhibitors (Hu IgG1 Fc-6325, Hu IgG1-6325, MSA-6325, SQT-Gly V.2-6325, SQT-Gly CF-6325 or SQT-Gly CG-6325) in the presence or absence of rhFAPα at a final concentration of 25 nM for 24 hours. Each experiment included an untreated control. Following the incubation, the levels of lactate dehydrogenase (LDH, a marker of pyroptosis) released into culture supernatants were measured using the CytoTox 96 Non-radioactive Cytotoxicity Assay according to the manufacturer's instructions. The results are shown in FIG. 17 as fold-increase in LDH release.
# G-CSF = conditions: mouse, in vivo; cited from earlier work
smiles,measurement,setting,value
"CC(C)[C@H](N)C(=O)N1CCC[C@H]1B(O)O [talabostat, Val-boroPro]",maximum tolerated dose (MTD),mouse tumor model,about 3 mg/m^2
same,maximum tolerated dose (MTD),rats; rats,0.18 mg/m^2
same,MTD as fraction of the tumor model EC50,rats,1/17
same,differentiation of fold-increase in LDH release with vs without FAPα,[1],not the case
same,serum G-CSF response,G-CSF,large serum G-CSF response
